Three compounds from ChEMBL document CHEMBL1201862, “PubChem BioAssay data set” (2004) can be followed below.

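Values below derive from 48-hour exposures of cells grown in 96-well plates, with endpoints linearly interpolated between the two concentrations bracketing the appropriate inhibition level. GI50: concentration for 50% inhibition of growth.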 Calls of active or inactive are those of the source. No stated cut-off is given here; in the data, active = GI50 up to about 1.1 µM and inactive = higher.

Test systems include A498; BT-549; DMS-114; DMS-273; EKVX; HCT-116; HL-60; Hs-578T; MDA-MB-231; MDA-N; Malme-3M; NCI-H226; PC-3; SF-295; SK-MEL-28; SK-MEL-5; SK-OV-3; SN12C; TK-10.
Assay in all cases: NCI tumour cell line growth inhibition, 48 h

On to `COc1ccc2nc(-c3ccc(O)cc3)cc(O)c2c1`, for which the GI50 was 0.269 µM (active) in the test on A498; 25.9 µM (inactive) in the test on BT-549; 0.474 µM (active) with DMS-114; 0.206 µM (active) in the test with DMS-273; 7.06 µM (inactive) in the test with EKVX; 0.977 µM (active) with HCT-116. The GI50 with HL-60 was 0.649 µM (active); in the test with Hs-578T it was 4.3 µM (inactive); with MDA-MB-231, 22.6 µM (inactive); in the test on MDA-N, 2.76 µM (inactive); with Malme-3M it was 0.459 µM (active); with NCI-H226, 0.959 µM (active). For the same compound, the GI50 in the test on PC-3 is 4.78 µM (inactive); in the test on SF-295 it was 2.1 µM (inactive); in the test on SK-MEL-28, 1.15 µM (inactive); in the test on SK-MEL-5, 0.714 µM (active); with SK-OV-3, 1.06 µM (active); in the test with SN12C, 2.78 µM (inactive). Also, in the test on TK-10, the GI50 was 8.97 µM (inactive).

For the compound `O=C(CCN1CCN(c2cccc(Cl)c2)CC1)N1CCc2c([nH]c3ccccc23)C1c1cccnc1` (configuration not stated), the GI50 in the test with A498 was 0.282 µM (active); in the test with DMS-114 it was 6.65 µM (inactive); in the test on DMS-273, 8.28 µM (inactive); in the test with EKVX it was 8.73 µM (inactive); with HCT-116, 7.13 µM (inactive); with HL-60, 2.54 µM (inactive). In addition, the GI50 was 7.71 µM (inactive) in the test with Malme-3M; 18.6 µM (inactive) with NCI-H226; 4.72 µM (inactive) with SF-295; 11.9 µM (inactive) in the test on SK-MEL-28; 6.25 µM (inactive) with SK-MEL-5; 6.59 µM (inactive) with SK-OV-3. The GI50 was 6.62 µM (inactive) in the test on SN12C and 4.01 µM (inactive) in the test on TK-10.

For `c1ccc2c(c1)[nH]c1c2nc2ncccn21`, the GI50 in the test on A498 is > 100 µM (inactive); in the test with DMS-114, > 100 µM (inactive); with DMS-273 it was > 100 µM (inactive); in the test on EKVX it was > 100 µM (inactive); in the test on HCT-116 it was > 100 µM (inactive); in the test on HL-60, > 10 µM (inactive). The GI50 in the test with Malme-3M, in the test with NCI-H226, with SF-295, in the test on SK-MEL-28, in the test on SK-MEL-5 and with SK-OV-3 was > 100 µM (inactive) in each case. For the same compound, the GI50 in the test on SN12C and in the test with TK-10 was > 100 µM (inactive) throughout.
